Consider one compound from US20180155336A1, “PROCESS FOR THE PREPARATION OF 2-{4-[2-({[2-(4-CHLOROPHENYL)-1,3-THIAZOL-4-YL]METHYL}SULFANYL)-3,5-DICYAN0-6-(PYRROLIDIN-1-YL)PYRIDIN-4-YL]PHENOXY}ETHYL-L-ALANYL-L-ALANINATE MONOHYDROCHLORIDE” (BAYER PHARMA AKTIENGESELLSCHAFT, priority 2015, published 2018).

This data set is described as follows: Storage stability of the crystalline form. The format is physicochemical. An excerpt: The compound of the formula (I) is generally micronized and formulated in pharmacy.

Counter-ions that a name gives are not always drawn. Some results are limits rather than exact numbers.

Consider `C[C@H](N)C(=O)N[C@@H](C)C(=O)OCCOc1ccc(-c2c(C#N)c(SCc3csc(-c4ccc(Cl)cc4)n3)nc(N3CCCC3)c2C#N)cc1` [2-{4-[2-({[2-(4-chlorophenyl)-1,3-thiazol-4-yl]methyl}sulphanyl)-3,5-dicyano-6-(pyrrolidin-1-yl)pyridin-4-yl]phenoxy}ethyl-L-alanyl L-alaninate monohydrochloride], for which the stability properties result (even at high atmospheric humidity) is given as “very good stability properties”. The “can be stored without any problem” value (storage time) was over 2 years.
